Measurements as given in patent US9840478B2 (MERCK SHARP & DOHME CORP., priority 2013, dated 2017).
pIC50: −log10 of the molar value.

What follows are compounds tested on HIV-1 (H9IIIB strain) (assay: Cell-based HIV infection assay using a reporter (Cell-Based), MT4-GFP cells). Conditions: Human immunodeficiency virus 1, MT4-GFP cells infected with HIV-1 H9IIIB; 50% normal human serum; mean of at least two independent experiments; read-out: Cell-based IP.
In short: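 MT4-GFP cells (HIV LTR-driven GFP) infected 24 h with HIV-1 H9IIIB at low MOI, then washed and plated with compounds in RPMI + 50% normal human serum, 0.4% DMSO final. Green cells counted at 24 and 48 h; R0 = 48 h/24 h ratio, inhibition normalized to DMSO and triple-drug control; IC50 from 4-parameter fit.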

Point of comparison: `O=C(C[C@@H](c1ccc(F)cc1)c1cc(F)cc(F)c1)Nc1cncc(F)c1CC[C@H]1CNCCN1S(=O)(=O)N1CCC(F)CC1` [Example 331, (3S)-3-(3,5-difluorophenyl)-N-[5-fluoro-4-(2-{(2S)-1-[(4-fluoropiperidin-1-yl)sulfonyl]piperazin-2-yl}ethyl)pyridin-3-yl]-3-(4-fluorophenyl)propanamide], pIC50 7.72. Against it:
- CC(=O)Nc1nc(C)c(S(=O)(=O)N2CCNC[C@@H]2CCc2c(F)cncc2NC(=O)C[C@@H](c2ccc(F)cc2)c2cc(F)cc(F)c2)s1 [Example 318, (3S)-N-(4-{2-[(2S)-1-{[2-(acetylamino)-4-methyl-1,3-thiazol-5-yl]sulfonyl}piperazin-2-yl]ethyl}-5-fluoropyridin-3-yl)-3-(3,5-difluorophenyl)-3-(4-fluorophenyl)propanamide] — 0.71 log units lower, 7.01
- O=Cc1ccc(S(=O)(=O)N2CCNC[C@@H]2CCc2c(F)cncc2NC(=O)C[C@@H](c2ccc(F)cc2)c2cc(F)cc(F)c2)cc1 [Example 319, (3S)-3-(3,5-difluorophenyl)-N-[5-fluoro-4-(2-{(2S)-1-[(4-formylphenyl)sulfonyl]piperazin-2-yl}ethyl)pyridin-3-yl]-3-(4-fluorophenyl)propanamide] — 0.49 log units lower, 7.23
- CC(=O)Nc1cccc(S(=O)(=O)N2CCNC[C@@H]2CCc2c(F)cncc2NC(=O)C[C@@H](c2ccc(F)cc2)c2cc(F)cc(F)c2)c1 [Example 320, (3S)-N-(4-{2-[(2S)-1-{[3-(acetylamino)phenyl]sul-fonyl}piperazin-2-yl]ethyl}-5-fluoropyridin-3-yl)-3-(3,5-difluorophenyl)-3-(4-fluorophenyl)propanamide] — 0.28 log units lower, 7.44
- O=C(C[C@@H](c1ccc(F)cc1)c1cc(F)cc(F)c1)Nc1cncc(F)c1CC[C@H]1CNCCN1S(=O)(=O)c1cnc2ccccc2c1 [Example 321, (3S)-3-(3,5-difluorophenyl)-3-(4-fluorophenyl)-N-(5-fluoro-4-{2-[(2S)-1-(quinolin-3-ylsulfonyl)piperazin-2-yl]ethyl}pyridin-3-yl)propanamide] — within 0.2 log units, 7.54
- O=C(C[C@@H](c1ccc(F)cc1)c1cc(F)cc(F)c1)Nc1cncc(F)c1CC[C@H]1CNCCN1S(=O)(=O)N1CCc2ccccc2C1 [Example 322, (3S)-3-(3,5-difluorophenyl)-N-(4-{2-[(2S)-1-(3,4-dihydroisoquinolin-2(1H)-ylsulfonyl)piperazin-2-yl]ethyl}-5-fluoropyridin-3-yl)-3-(4-fluorophenyl)propanamide] — 1.44 log units lower, 6.28
- O=C(C[C@@H](c1ccc(F)cc1)c1cc(F)cc(F)c1)Nc1cncc(F)c1CC[C@H]1CNCCN1S(=O)(=O)N1CCCC1 [Example 323, (3S)-3-(3,5-difluorophenyl)-3-(4-fluorophenyl)-N-(5-fluoro-4-{2-[(2S)-1-(pyrrolidin-1-ylsulfonyl)piperazin-2-yl]ethyl}pyridin-3-yl)propanamide] — 0.60 log units higher, 8.32
- CC(C)NS(=O)(=O)N1CCNC[C@@H]1CCc1c(F)cncc1NC(=O)C[C@@H](c1ccc(F)cc1)c1cc(F)cc(F)c1 [Example 324, (3S)-3-(3,5-difluorophenyl)-N-[5-fluoro-4-(2-{(2S)-1-[(1-methylethyl)sulfamoyl]piperazin-2-yl}ethyl)pyridin-3-yl]-3-(4-fluorophenyl)propanamide] — 0.32 log units lower, 7.40
- O=C(C[C@@H](c1ccc(F)cc1)c1cc(F)cc(F)c1)Nc1cncc(F)c1CC[C@H]1CNCCN1S(=O)(=O)N1CCCCC1 [Example 325, (3S)-3-(3,5-difluorophenyl)-3-(4-fluorophenyl)-N-(5-fluoro-4-{2-[(2S)-1-(piperidin-1-ylsulfonyl)piperazin-2-yl]ethyl}pyridin-3-yl)propanamide] — within 0.2 log units, 7.89
- O=C(C[C@@H](c1ccc(F)cc1)c1cc(F)cc(F)c1)Nc1cncc(F)c1CC[C@H]1CNCCN1S(=O)(=O)N1CCOCC1 [Example 326, (3S)-3-(3,5-difluorophenyl)-N-(5-fluoro-4-{2-[(2S)-1-(morpholin-4-ylsulfonyl)piperazin-2-yl]ethyl}pyridin-3-yl)-3-(4-fluorophenyl)propanamide] — 0.38 log units higher, 8.10
- O=C(C[C@@H](c1ccc(F)cc1)c1cc(F)cc(F)c1)Nc1cncc(F)c1CC[C@H]1CNCCN1S(=O)(=O)N1CC[C@@H](F)C1 [Example 327, (3S)-3-(3,5-difluorophenyl)-N-(5-fluoro-4-{2-[(2)S-1-{[(3R)-3-fluoropyrrolidin-1-yl]sulfonyl}piperazin-2-yl]ethyl}pyridin-3-yl)-3-(4-fluorophenyl)propanamide] — 0.31 log units higher, 8.03
- O=C(C[C@@H](c1ccc(F)cc1)c1cc(F)cc(F)c1)Nc1cncc(F)c1CC[C@H]1CNCCN1S(=O)(=O)N1CCC(F)(F)C1 [Example 329, (3S)-3-(3,5-difluorophenyl)-N-[4-(2-{(2)S-1-[(3,3-difluoropyrrolidin-1-yl)sulfonyl]piperazin-2-yl}ethyl)-5-fluoropyridin-3-yl]-3-(4-fluorophenyl)propanamide] — 0.39 log units lower, 7.33
- O=C(C[C@@H](c1ccc(F)cc1)c1cc(F)cc(F)c1)Nc1cncc(F)c1CC[C@H]1CNCCN1S(=O)(=O)N1CCC(F)(F)CC1 [Example 330, (3S)-3-(3,5-difluorophenyl)-N-[4-(2-{(2S)-1-[(4,4-difluoropiperidin-1-yl)sulfonyl]piperazin-2-yl}ethyl)-5-fluoropyridin-3-yl]-3-(4-fluorophenyl)propanamide] — 0.35 log units lower, 7.37
- O=C(C[C@@H](c1ccc(F)cc1)c1cc(F)cc(F)c1)Nc1cncc(F)c1CC[C@H]1CNCCN1S(=O)(=O)N1CCCC(F)(F)C1 [Example 332, (3S)-3-(3,5-difluorophenyl)-N-[4-(2-{(2S)-1-[(3,3-difluoropiperidin-1-yl)sulfonyl]piperazin-2-yl}ethyl)-5-fluoropyridin-3-yl]-3-(4-fluorophenyl)propanamide] — 1.33 log units lower, 6.39
- O=C(C[C@@H](c1ccc(F)cc1)c1cc(F)cc(F)c1)Nc1cncc(F)c1CC[C@H]1CNCCN1S(=O)(=O)N1CCCC(F)C1 (stereo partly drawn) [Example 333, (3S)-3-(3,5-difluorophenyl)-N-[5-fluoro-4-(2-{(2S)-1-[(3-fluoropiperidin-1-yl)sulfonyl]piperazin-2-yl}ethyl)pyridin-3-yl]-3-(4-fluorophenyl)propanamide] — 0.53 log units lower, 7.19
- CC(C)CC1CCCN1S(=O)(=O)N1CCNC[C@@H]1CCc1c(F)cncc1NC(=O)C[C@@H](c1ccc(F)cc1)c1cc(F)cc(F)c1 (stereo partly drawn) [Example 337, (3S)-3-(3,5-difluorophenyl)-N-(5-fluoro-4-{2-[(2S)-1-{[2-(2-methylpropyl)pyrrolidin-1-yl]sulfonyl}piperazin-2-yl]ethyl}pyridin-3-yl)-3-(4-fluorophenyl)propanamide] — 0.83 log units lower, 6.89
- O=C(C[C@@H](c1ccc(F)cc1)c1cc(F)cc(F)c1)Nc1cncc(F)c1CC[C@H]1CNCCN1S(=O)(=O)NCC(F)CCl (stereo partly drawn) [Example 339, (3S)-N-[4-(2-{(2S)-1-[(3-chloro-2-fluoropropyl)sulfamoyl]piperazin-2-yl}ethyl)-5-fluoropyridin-3-yl]-3-(3,5-difluorophenyl)-3-(4-fluorophenyl)propanamide] — 0.32 log units lower, 7.40
- CCN(CC)S(=O)(=O)N1CCNC[C@@H]1CCc1c(F)cncc1NC(=O)C[C@@H](c1ccc(F)cc1)c1cc(F)cc(F)c1 [Example 340, (3S)-N-(4-{2-[(2S)-1-(diethylsulfamoyl)pipera-zin-2-yl]ethyl}-5-fluoropyridin-3-yl)-3-(3,5-difluorophenyl)-3-(4-fluorophenyl)propanamide] — 1.04 log units lower, 6.68
- O=C(C[C@@H](c1ccc(F)cc1)c1cc(F)cc(F)c1)Nc1cncc(F)c1CC[C@H]1CNCCN1C(=O)N1CCCCC1 [Example 341, (3S)-3-(3,5-difluorophenyl)-3-(4-fluorophenyl)-N-(5-fluoro-4-{2-[(2S)-1-(piperidin-1-ylcarbonyl)piperazin-2-yl]ethyl}pyridin-3-yl)propanamide] — 1.37 log units lower, 6.35
- O=C(C[C@@H](c1ccc(F)cc1)c1cc(F)cc(F)c1)Nc1cncc(F)c1CC[C@H]1CNCCN1C(=O)COc1ccccc1 [Example 343, (3S)-3-(3,5-difluorophenyl)-N-(5-fluoro-4-{2-[(2S)-1-(phenoxyacetyl)piperazin-2-yl]ethyl}pyridin-3-yl)-3-(4-fluorophenyl)propanamide] — 0.82 log units lower, 6.90
- O=C(C[C@@H](c1ccc(F)cc1)c1cc(F)cc(F)c1)Nc1cncc(F)c1CC[C@H]1CNCCN1C(=O)c1ccc(OC(F)(F)F)cc1 [Example 344, (3S)-3-(3,5-difluorophenyl)-3-(4-fluorophenyl)-N-(5-fluoro-4-{2-[(2S)-1-{[4-(trifluoromethoxy)phenyl]carbonyl}piperazin-2-yl]ethyl}pyridin-3-yl)propanamide] — 1.98 log units lower, 5.74
- O=C(C[C@@H](c1ccc(F)cc1)c1cc(F)cc(F)c1)Nc1cncc(F)c1CC[C@H]1CNCCN1C(=O)c1ccc2c(c1)OC(F)(F)O2 [Example 345, (3S)-N-[4-(2-{(2S)-1-[(2,2-difluoro-1,3-benzodioxol-5-yl)carbonyl]piperazin-2-yl}ethyl)-5-fluoropyridin-3-yl]-3-(3,5-difluorophenyl)-3-(4-fluorophenyl)propanamide] — 1.92 log units lower, 5.80
- O=C(C[C@@H](c1ccc(F)cc1)c1cc(F)cc(F)c1)Nc1cncc(F)c1CC[C@H]1CNCCN1C(=O)c1cccc(OC(F)(F)F)c1 [Example 346, (3S)-3-(3,5-difluorophenyl)-3-(4-fluorophenyl)-N-(5-fluoro-4-{2-[(2S)-1-{[3-(trifluoromethoxy)phenyl]carbonyl}piperazin-2-yl]ethyl}pyridin-3-yl)propanamide] — 1.65 log units lower, 6.07

Same assay, conditions: MT4-GFP cells infected with HIV-1 H9IIIB; 50% normal human serum; mean of at least two independent experiments; read-out: Cell-based IP

`O=C(C[C@@H](c1ccc(F)cc1)c1cc(F)cc(F)c1)Nc1cncc(F)c1CC[C@H]1CNCCN1S(=O)(=O)N1CC[C@@H](F)C1` [Example 328, (3S)-3-(3,5-difluorophenyl)-N-(5-fluoro-4-{2-[(2S)-1-{[(3S)-3-fluoropyrrolidin-1-yl]sulfonyl}piperazin-2-yl]ethyl}pyridin-3-yl)-3-(4-fluorophenyl)propanmide] showed a pIC50 of 7.80.
